Laboratory results: patent publication US20240287070A1, “FUSED HETEROCYCLIC DERIVATIVES” (Janssen Sciences Ireland Unlimited Company, priority 2021, published 2024)

Columns and labels:
[1] = test system: HepG2 or HepG2.117 cells; experiment: Cytotoxicity, ATPlite Luminescence Assay; format: cell-based, human; conditions: 3-days incubation unless marked with *
Outline: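 HepG2/HepG2.117; compound exposure 3–4 d; viability readout = ATPlite luminescence.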

[2] = Human liver microsome stability; format: in vitro ADME; conditions: pooled human liver microsomes 0.5 mg/mL, 1 μM compound, NADPH 1 mM, 37° C., 0-60 min
Outline: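 Half-life came from elimination rate constant (negative slope of ln compound/internal standard area ratio over time), measured by cassette LC-MS after acetonitrile quench. Human liver microsome reactions, one replicate per compound, were initiated with NADPH (1 mM final) and sampled at six points up to 60 min.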

[3] = test system: HBV (HepG2.117 cell line, inducibly HBV producing); experiment: Anti-HBV activity, intracellular HBV DNA by real-time PCR in HepG2.117 cell line; format: cell-based, hepatitis B virus; conditions: HepG2.117 cells, 3 days of treatment
Outline: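 Tet-off HepG2.117; HBV replication induced (no doxycycline); serial compound dilutions, 3 d; intracellular HBV DNA by real-time PCR, HBV-specific primers/probe.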

| SMILES | CC50 [1] [µM] | HLM Metabolism t1/2 [2] [min] | EC50 [3] [µM] |
| --- | --- | --- | --- |
| CC(c1ccnc(Cl)c1)N1C[C@@H](C)n2nc3c(c2C1=O)CN(C(=O)c1ccc(Cl)c(Cl)c1)[C@H](C)C3 (single isomer, unassigned) [Compound 31B, (3R,7R)-9-((S*)-1-(2-chloropyridin-4-yl)ethyl)-2-(3,4-dichlorobenzoyl)-3,7-dimethyl-1,2,3,4,8,9-hexahydropyrido[4′,3′:3,4]pyrazolo[1,5-a]pyrazin-10(7H)-one] | 22.7 | 127 | 0.019 |
| CC(c1ncccn1)N1C[C@@H](C)n2nc3c(c2C1=O)CN(C(=O)c1ccc(Cl)c(Cl)c1)[C@H](C)C3 (single isomer, unassigned) [Compound 39B, (3R,7R)-2-(3,4-dichlorobenzoyl)-3,7-dimethyl-9-((S*)-1-(pyrimidin-2-yl)ethyl)-1,2,3,4,8,9-hexahydropyrido[4′,3′:3,4]pyrazolo[1,5-a]pyrazin-10(7H)-one] | > 25 | >180 | 0.035 |
| CC(c1cnn(C(C)C)c(=O)c1)N1C[C@@H](C)n2nc3c(c2C1=O)CN(C(=O)c1ccc(Cl)c(C(F)(F)F)c1)[C@H](C)C3 (single isomer, unassigned) [Compound 53B, (3R,7R)-2-(4-chloro-3-(trifluoromethyl)benzoyl)-9-((S*)-1-(1-isopropyl-6-oxo-1,6-dihydropyridazin-4-yl)ethyl)-3,7-dimethyl-1,2,3,4,8,9-hexahydropyrido[4′,3′:3,4]pyrazolo[1,5-a]pyrazin-10(7H)-one] | > 50 | 70.9 | 0.01 |
| CC(c1ccn(C(F)F)c(=O)c1)N1C[C@@H](C)n2nc3c(c2C1=O)CN(C(=O)c1ccc(Cl)c(C(F)(F)F)c1)[C@H](C)C3 (single isomer, unassigned) [Compound 49B, (3R,7R)-2-(4-chloro-3-(trifluoromethyl)benzoyl)-9-((S*)-1-(1-(difluoromethyl)-2-oxo-1,2-dihydropyridin-4-yl)ethyl)-3,7-dimethyl-1,2,3,4,8,9-hexahydropyrido [4′,3′:3,4]pyrazolo[1,5-a]pyrazin-10(7H)-one] | > 50 | >180 | 0.013 |
| Cc1nnc(C(C)N2C[C@@H](C)n3nc4c(c3C2=O)CN(C(=O)c2ccc(Cl)c(Cl)c2)[C@H](C)C4)o1 (single isomer, unassigned) [Compound 43B, (3R,7R)-2-(3,4-dichlorobenzoyl)-3,7-dimethyl-9-((S*)-1-(5-methyl-1,3,4-oxadiazol-2-yl)ethyl)-1,2,3,4,8,9-hexahydropyrido[4′,3′:3,4]pyrazolo[1,5-a]pyrazin-10(7H)-one] | > 50 | >180 | 0.065 |
| CC(c1cc(F)ccn1)N1C[C@@H](C)n2nc3c(c2C1=O)CN(C(=O)c1ccc(Cl)c(Cl)c1)[C@H](C)C3 (single isomer, unassigned) [Compound 32B] | > 50 | 134 | 0.088 |
| C[C@@H]1Cc2nn3c(c2CN1C(=O)c1ccc(Cl)c(C(F)(F)F)c1)C(=O)N([C@H](C)c1ccc([S@@](C)(=O)=NC#N)cc1)C[C@H]3C (relative stereo) [Compound 20A, N—((R*)-(4-((R*)-1-((3R,7R)-2-(4-chloro-3-(trifluoromethyl)benzoyl)-3,7-dimethyl-10-oxo-1,3,4,7,8,10-hexahydropyrido[4′,3′:3,4]pyrazolo[1,5-a]pyrazin-9(2H)-yl)ethyl)phenyl)(methyl)(oxo)-16-sulfaneylidene)cyanamide] | > 50 | >180 | 0.041 |
| Cc1nnnn1-c1ccc(C(C)N2C[C@@H](C)n3nc4c(c3C2=O)CN(C(=O)c2ccc(Cl)c(Cl)c2)[C@H](C)C4)cn1 (single isomer, unassigned) [Compound 27B, (3R,7R)-2-(3,4-dichlorobenzoyl)-3,7-dimethyl-9-((S*)-1-(6-(5-methyl-1H-tetrazol-1-yl)pyridin-3-yl)ethyl)-1,2,3,4,8,9-hexahydropyrido[4′,3′:3,4]pyrazolo[1,5-a]pyrazin-10(7H)-one] | > 50 | 83.3 | 0.018 |
| CC(c1ccn(CC(F)(F)F)n1)N1C[C@@H](C)n2nc3c(c2C1=O)CN(C(=O)c1ccc(Cl)c(C#N)c1)[C@H](C)C3 (single isomer, unassigned) [Compound 42A, 2-chloro-5-((3R,7R)-3,7-Dimethyl-10-oxo-9-((R*)-1-(1-(2,2,2-trifluoroethyl)-1H-pyrazol-3-yl)ethyl)-1,2,3,4,7,8,9,10-octahydropyrido[4′,3′:3,4]pyrazolo[1,5-a]pyrazine-2-carbonyl)benzonitrile] | > 50 | >180 | 0.12 |
| CC(c1nnc(C2CC2)o1)N1C[C@@H](C)n2nc3c(c2C1=O)CN(C(=O)c1ccc(Cl)c(Cl)c1)[C@H](C)C3 (single isomer, unassigned) [Compound 44B, (3R,7R)-9-((S*)-1-(5-cyclopropyl-1,3,4-oxadiazol-2-yl)ethyl)-2-(3,4-dichlorobenzoyl)-3,7-dimethyl-1,2,3,4,8,9-hexahydropyrido[4′,3′:3,4]pyrazolo[1,5-a]pyrazin-10(7H)-one] | > 50 | 133 | 0.065 |
| CC(c1ccc(C(C)(C)O)nc1)N1C[C@@H](C)n2nc3c(c2C1=O)CN(C(=O)c1ccc(Cl)c(F)c1)[C@H](C)C3 (single isomer, unassigned) [Compound 59B, (3R,7R)-2-(4-chloro-3-fluorobenzoyl)-9-((S*)-1-(6-(2-hydroxypropan-2-yl)pyridin-3-yl)ethyl)-3,7-dimethyl-1,2,3,4,8,9-hexahydropyrido[4′,3′:3,4]pyrazolo[1,5-a]pyrazin-10(7H)-one] | > 50 | >180 | 0.055 |
| CC(c1cnc(C(F)(F)F)nc1)N1C[C@@H](C)n2nc3c(c2C1=O)CN(C(=O)c1ccc(Cl)c(Cl)c1)[C@H](C)C3 (single isomer, unassigned) [Compound 34B, (3R,7R)-2-(3,4-dichlorobenzoyl)-3,7-dimethyl-9-((S*)-1-(2-(trifluoromethyl)pyrimidin-5-yl)ethyl)-1,2,3,4,8,9-hexahydropyrido[4′,3′:3,4]pyrazolo[1,5-a]pyrazin-10(7H)-one] | 34.9 | >180 | 0.052 |
| CC(c1ccn(CC(F)(F)F)c(=O)c1)N1C[C@@H](C)n2nc3c(c2C1=O)CN(C(=O)c1ccc(Cl)c(Cl)c1)[C@H](C)C3 (single isomer, unassigned) [Compound 51B, (3R,7R)-2-(3,4-dichlorobenzoyl)-3,7-dimethyl-9-((S*)-1-(2-oxo-1-(2,2,2-trifluoroethyl)-1,2-dihydropyridin-4-yl)ethyl)-1,2,3,4,8,9-hexahydropyrido[4′,3′:3,4]pyrazolo[1,5-a]pyrazin-10(7H)-one] | > 50 | >180 | 0.028 |
| CC(c1cnc(C2CC2)cn1)N1C[C@@H](C)n2nc3c(c2C1=O)CN(C(=O)c1ccc(Cl)c(Cl)c1)[C@H](C)C3 (single isomer, unassigned) [Compound 3B, (3R,7R)-9-((S*)-1-(5-cyclopropylpyrazin-2-yl)ethyl)-2-(3,4-dichlorobenzoyl)-3,7-dimethyl-1,2,3,4,8,9-hexahydropyrido[4′,3′:3,4]pyrazolo[1,5-a]pyrazin-10(7H)-one] | 16.4 | 133 | 0.023 |
| C[C@@H]1Cc2nn3c(c2CN1C(=O)c1ccc(Cl)c(C(F)(F)F)c1)C(=O)N([C@@H](C)c1ccc([S@](C)(=O)=NC#N)cc1)C[C@H]3C (relative stereo) [Compound 20D, N—((S*)-(4-((S*)-1-((3R,7R)-2-(4-chloro-3-(trifluoromethyl)benzoyl)-3,7-dimethyl-10-oxo-1,3,4,7,8,10-hexahydropyrido[4′,3′:3,4]pyrazolo[1,5-a]pyrazin-9(2H)-yl)ethyl)phenyl)(methyl)(oxo)-16-sulfaneylidene)cyanamide] | > 50 | 88.1 | 0.032 |
| CC(c1ccc(-n2cncn2)cc1)N1C[C@@H](C)n2nc3c(c2C1=O)CN(C(=O)c1ccc(Cl)c(C#N)c1)[C@H](C)C3 (single isomer, unassigned) [Compound 11B, 5-((3R,7R)-9-((S*)-1-(4-(1H-1,2,4-triazol-1-yl)phenyl)ethyl)-3,7-dimethyl-10-oxo-1,2,3,4,7,8,9,10-octahydropyrido[4′,3′:3,4]pyrazolo[1,5-a]pyrazine-2-carbonyl)-2-chlorobenzonitrile] | > 50 | >180 | 0.032 |
| CC(c1cnc(NC2CC2)nc1)N1C[C@@H](C)n2nc3c(c2C1=O)CN(C(=O)c1ccc(Cl)c(Cl)c1)[C@H](C)C3 (single isomer, unassigned) [Compound 37B, (3R,7R)-9-((S*)-1-(2-(cyclopropylamino)pyrimidin-5-yl)ethyl)-2-(3,4-dichlorobenzoyl)-3,7-dimethyl-1,2,3,4,8,9-hexahydropyrido[4′,3′:3,4]pyrazolo[1,5-a]pyrazin-10(7H)-one] | > 50 | 53.5 | 0.041 |
